Experimental data published in US20080255079A1, “Therapeutic Use of Nefopam and Analogues Thereof” (priority 2005, published 2008).
Counter-ions that a name gives are not always drawn. Marks after values point to notes of the source that are not given here.

What was measured:
[1] = test system: formalin-induced paw licking model in mice; test: Formalin-induced hyperalgesia (paw licking) in mouse; type: in vivo; conditions: for Nociception, hindpaw licking time, early phase: early phase (0-5 min after formalin); for Nociception, hindpaw licking time, early phase / Nociception, hindpaw licking time, late phase: 60 min before formalin, vs vehicle; for licking behaviour compared to vehicle control, first phase (in words): first phase (acute nociceptive pain), at both 60 and 100 mg/kg; for Nociception, hindpaw licking time, late phase: late phase (20-30 min after formalin); for paw licking time compared to vehicle control (in words): po, both phases; for licking behaviour, second phase (in words): second phase (persistent pain states), 100 mg/kg
Description: Nefopam and (+)-nefopam have been evaluated in the formalin-induced paw licking model in mice. […] The late phase seems to be an inflammatory response and is a recognized model of persistent pain. This test may, therefore, be a useful indicator of analgesic efficacy in fibromyalgia. Compounds were evaluated for both an early stage response and a late stage response and compared against morphine as control.
Inflammation was induced by subplantar injection of a 5% formalin solution (0.02 ml) into the mouse right hindpaw (20-25 g male Rj: NMRI). Hindpaw licking time was continuously recorded in a blinded fashion between 0 to 5 minutes (early phase) and between 20 to 30 minutes (late phase) after formalin injection (Hunskaar etal., 1985—J. Neurosci. Methods; 14:69-76).
The test substances and vehicle were orally administered 60 min before formalin injection.

[2] = test system: mice forced to swim (duration of immobility); test: Behavioural Despair Test in mouse; type: in vivo; conditions: for Duration of Immobility (% change from ctrl): 30 min before test; for anti-depressant activity (in words): ip
Description: Nefopam and (+)-nefopam have been evaluated in the Behavioural Despair Test, a model which detects antidepressant activity. This test was conducted according to the method of Porsolt et al., (1977—Arch. Int. Pharmacodyn., 229:327-336), in which mice are forced to swim in a situation from which they cannot escape rapidly become immobile. Antidepressants decrease the duration of immobility.
Mice (20-27 g male Rj: NMRI) were individually placed in a cylinder (height=24 cm, diameter=13 cm) containing 10 cm water (22° C.) from which they cannot escape. The mice were placed in the water for 6 minutes and the duration of immobility during the last 4 minutes was measured. All compounds were administered i.p. 30 minutes before the test, and compared with a vehicle control group. Imipramine (32 mg/kg i.p.), administered under the same experimental conditions, was used as reference substance.

[3] = test system: mice exposed to marbles (marble burying); test: Marble Burying Test in mouse; type: in vivo; conditions: for Number of marbles buried (% change from ctrl): 30 min before test; for antidepressant and anxiolytic activity (in words): ip
Text: Nefopam and (+)-nefopam have been evaluated in the Marble Burying Test, a model which detects anxiolytic/tranquillizing activity. The method follows that described by Broekkamp et al. (1986—Eur. J. Pharmacol., 126, 223-229). Mice exposed to novel object (marbles) will bury them in the sawdust floor covering. Anxiolytics decrease the number of marbles buried at non-sedative doses.
Mice are individually placed in transparent plastic cages (33×21×18 cm) with 5 cm of sawdust on the floor, and 25 marbles grouped in the centre of the cage. The cage is covered with an inverted plastic cage. Each test cage, together with the marbles, is impregnated with mouse odor beforehand, by leaving 10 mice in the cage for 15 minutes. These mice then play no further role in the experiment. The number of marbles covered by sawdust (⅔ or more) is counted at the end of a 30 minute test.
All compounds were administered i.p. 30 minutes before the test, and compared with a vehicle control group. Clobazam (8 mg/kg i.p.), administered under the same experimental conditions, was used as reference substance.

[4] = conventional release preparations; cited from earlier work

SMILES	Nociception, hindpaw licking time, early phase ([1]; 30 mg/kg po) [%]	Nociception, hindpaw licking time, early phase ([1]; 60 mg/kg po) [%*]	Nociception, hindpaw licking time, early phase ([1]; 100 mg/kg po) [%*]	licking behaviour compared to vehicle control, first phase (in words) [1]	Nociception, hindpaw licking time, late phase ([1]; 30 mg/kg po) [%]	Nociception, hindpaw licking time, late phase ([1]; 60 mg/kg po)	Nociception, hindpaw licking time, late phase ([1]; 100 mg/kg po) [%*]	paw licking time compared to vehicle control (in words) [1]	licking behaviour, second phase (in words) [1]	Duration of Immobility (% change from ctrl) ([2]; 20 mg/kg ip)	Duration of Immobility (% change from ctrl) ([2]; 40 mg/kg ip)	Duration of Immobility (% change from ctrl) ([2]; 60 mg/kg ip)	anti-depressant activity (in words) [2]	Number of marbles buried (% change from ctrl) ([3]; 10 mg/kg ip)	Number of marbles buried (% change from ctrl) ([3]; 20 mg/kg ip)	Number of marbles buried (% change from ctrl) ([3]; 40 mg/kg ip)	antidepressant and anxiolytic activity (in words) [3]	other results
CN1CCOC(c2ccccc2)c2ccccc2C1 (racemic) [Nefopam, 5-methyl-1-phenyl-3,4,5,6-tetrahydro-1H-2,5-benzoxazocine hydrochloride]	−28	−64	−85	significant reduction in licking behaviour	−41	−63%*	−89	dose-dependently decreased paw licking time	significant reduction in licking behaviour	−42	−85 * % change from ctrl	−100 * % change from ctrl	significant anti-depressant activity	−66 * % change from ctrl	−98 * % change from ctrl	−100 * % change from ctrl	significant antidepressant and anxiolytic activity	elimination half-life [4]: four
CN1CCO[C@@H](c2ccccc2)c2ccccc2C1 [(+)-Nefopam]	−40	−59	−86	significant reduction in licking behaviour	−31	−69%	−90	dose-dependently decreased paw licking time	significant reduction in licking behaviour	−38	−92 * % change from ctrl	−100 * % change from ctrl	significant anti-depressant activity	−56 * % change from ctrl	−99 * % change from ctrl	−100 * % change from ctrl	significant antidepressant and anxiolytic activity	–
CN1C(=O)CC(=O)N(c2ccccc2)c2cc(Cl)ccc21 [Clobazam]	–	–	–	–	–	–	–	–	–	–	–	–	–	–	–	–	–	Number of marbles buried (% change from ctrl) ([3]; 32 mg/kg ip): −75 * % change from ctrl
CN(C)CCCN1c2ccccc2CCc2ccccc21 [Imipramine]	–	–	–	–	–	–	–	–	–	–	–	–	–	–	–	–	–	Duration of Immobility (% change from ctrl) ([2]; 32 mg/kg ip): −80 * % change from ctrl
CN1CC[C@]23c4c5ccc(O)c4O[C@H]2[C@@H](O)C=C[C@H]3[C@H]1C5 [Morphine]	–	–	–	–	–	–	–	–	–	–	–	–	–	–	–	–	–	Nociception, hindpaw licking time, early phase ([1]; 80 mg/kg po): −98%*; Nociception, hindpaw licking time, late phase ([1]; 80 mg/kg po): −98%*
